Test results taken from ChEMBL document CHEMBL1201862, “PubChem BioAssay data set” (2004).
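Each compound was tested at five concentrations against cells in 96-well plates for 48 hours. At the GI50, growth is halved.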 Active and inactive are the calls of the source. Rule as the data show it: active = GI50 up to about 1.1 µM and inactive = higher.

How the values were obtained:
Assay in all cases: NCI anticancer screen, dose series, 48 h
COLO 205 = system: COLO 205
OVCAR-3 = system: OVCAR-3
HOP-62 = system: HOP-62
OVCAR-5 = system: OVCAR-5
A498 = system: A498
PC-3 = system: PC-3
MDA-MB-231 = system: MDA-MB-231
UO-31 = system: UO-31
MOLT-4 = system: MOLT-4
UACC-257 = system: UACC-257
Hs-578T = system: Hs-578T
OVCAR-4 = system: OVCAR-4
CCRF-CEM = system: CCRF-CEM
Malme-3M = system: Malme-3M
SF-268 = system: SF-268
OVCAR-8 = system: OVCAR-8
T47D = system: T47D
SNB-75 = system: SNB-75
NCI/ADR-RES = system: NCI/ADR-RES
NCI-H226 = system: NCI-H226
HCT-15 = system: HCT-15
HOP-92 = system: HOP-92
M14 = system: M14
EKVX = system: EKVX
NCI-H460 = system: NCI-H460
CAKI-1 = system: CAKI-1
IGROV-1 = system: IGROV-1
SNB-19 = system: SNB-19
KM12 = system: KM12
TK-10 = system: TK-10
NCI-H522 = system: NCI-H522
MDA-MB-435 = system: MDA-MB-435
SK-MEL-5 = system: SK-MEL-5
LOX IMVI = system: LOX IMVI
ACHN = system: ACHN
A549 = system: A549
HL-60 = system: HL-60
HCC 2998 = system: HCC 2998
DU-145 = system: DU-145
U-251 = system: U-251
SR = system: SR
HT-29 = system: HT-29
RXF 393 = system: RXF 393
SK-OV-3 = system: SK-OV-3
786-0 = system: 786-0
RPMI-8226 = system: RPMI-8226
SW-620 = system: SW-620
K562 = system: K562
UACC-62 = system: UACC-62
HCT-116 = system: HCT-116
SK-MEL-2 = system: SK-MEL-2
SF-295 = system: SF-295
NCI-H23 = system: NCI-H23
SK-MEL-28 = system: SK-MEL-28
SN12C = system: SN12C
MCF7 = system: MCF7
SF-539 = system: SF-539
MDA-N = system: MDA-N

COc1cc(OC)cc(Oc2nc3ccccc3nc2C(=O)O)c1
GI50 (COLO 205): > 100 µM (inactive)
GI50 (OVCAR-3): > 100 µM (inactive)
GI50 (HOP-62): > 100 µM (inactive)
GI50 (OVCAR-5): > 100 µM (inactive)
GI50 (A498): > 100 µM (inactive)
GI50 (PC-3): > 100 µM (inactive)
GI50 (MDA-MB-231): > 100 µM (inactive)
GI50 (UO-31): > 100 µM (inactive)
GI50 (MOLT-4): > 100 µM (inactive)
GI50 (UACC-257): > 100 µM (inactive)
GI50 (Hs-578T): > 100 µM (inactive)
GI50 (OVCAR-4): 0.6 µM (active)
GI50 (CCRF-CEM): > 100 µM (inactive)
GI50 (Malme-3M): > 100 µM (inactive)
GI50 (SF-268): > 100 µM (inactive)
GI50 (OVCAR-8): > 100 µM (inactive)
GI50 (T47D): > 100 µM (inactive)
GI50 (SNB-75): > 100 µM (inactive)
GI50 (NCI/ADR-RES): > 100 µM (inactive)
GI50 (NCI-H226): > 100 µM (inactive)
GI50 (HCT-15): > 100 µM
GI50 (HOP-92): > 100 µM (inactive)
GI50 (M14): > 100 µM (inactive)
GI50 (EKVX): > 100 µM (inactive)
GI50 (NCI-H460): > 100 µM (inactive)
GI50 (CAKI-1): > 100 µM (inactive)
GI50 (IGROV-1): > 100 µM (inactive)
GI50 (SNB-19): > 100 µM (inactive)
GI50 (KM12): > 100 µM (inactive)
GI50 (TK-10): > 100 µM (inactive)
GI50 (NCI-H522): > 100 µM (inactive)
GI50 (MDA-MB-435): > 100 µM (inactive)
GI50 (SK-MEL-5): > 100 µM (inactive)
GI50 (LOX IMVI): > 100 µM (inactive)
GI50 (ACHN): > 100 µM (inactive)
GI50 (A549): > 100 µM (inactive)
GI50 (HL-60): > 100 µM (inactive)
GI50 (HCC 2998): > 100 µM (inactive)
GI50 (DU-145): > 100 µM (inactive)
GI50 (U-251): > 100 µM (inactive)
GI50 (SR): > 100 µM (inactive)
GI50 (HT-29): > 100 µM (inactive)
GI50 (RXF 393): > 100 µM (inactive)
GI50 (SK-OV-3): > 100 µM (inactive)
GI50 (786-0): > 100 µM (inactive)
GI50 (RPMI-8226): > 100 µM (inactive)
GI50 (SW-620): > 100 µM (inactive)
GI50 (K562): > 100 µM (inactive)
GI50 (UACC-62): > 100 µM (inactive)
GI50 (HCT-116): > 100 µM (inactive)
GI50 (SK-MEL-2): > 100 µM (inactive)
GI50 (SF-295): > 100 µM (inactive)
GI50 (NCI-H23): > 100 µM (inactive)
GI50 (SK-MEL-28): > 100 µM (inactive)

COc1cc(OC)c(C2c3cc4c(cc3OC(N3CCCC3)C2C)OCO4)c(OC)c1 (stereo unspecified)
GI50 (COLO 205): > 10 µM (inactive)
GI50 (OVCAR-3): 4.26 µM (inactive)
GI50 (HOP-62): 16.5 µM (inactive)
GI50 (OVCAR-5): 18.5 µM (inactive)
GI50 (PC-3): 15.7 µM (inactive)
GI50 (UO-31): 7.67 µM (inactive)
GI50 (MOLT-4): 10.9 µM (inactive)
GI50 (UACC-257): 19.2 µM (inactive)
GI50 (SN12C): 15.3 µM (inactive)
GI50 (MCF7): 14.9 µM (inactive)
GI50 (SF-539): 12.1 µM (inactive)
GI50 (Hs-578T): 3.77 µM (inactive)
GI50 (CCRF-CEM): 15.2 µM (inactive)
GI50 (MDA-N): 15 µM (inactive)
GI50 (SF-268): 8.49 µM (inactive)
GI50 (OVCAR-8): 16.3 µM (inactive)
GI50 (T47D): 10.5 µM (inactive)
GI50 (NCI/ADR-RES): 15.2 µM (inactive)
GI50 (HCT-15): 6.11 µM
GI50 (M14): 12.2 µM (inactive)
GI50 (EKVX): 22.3 µM (inactive)
GI50 (NCI-H460): 13.2 µM (inactive)
GI50 (IGROV-1): 13.5 µM (inactive)
GI50 (SNB-19): 15 µM (inactive)
GI50 (KM12): 10.6 µM (inactive)
GI50 (TK-10): 19.1 µM (inactive)
GI50 (NCI-H522): 15.3 µM (inactive)
GI50 (SK-MEL-5): 13.8 µM (inactive)
GI50 (LOX IMVI): 11.9 µM (inactive)
GI50 (ACHN): 5.11 µM (inactive)
GI50 (A549): 19.7 µM (inactive)
GI50 (HCC 2998): 10.1 µM (inactive)
GI50 (DU-145): 13 µM (inactive)
GI50 (SR): 11.1 µM (inactive)
GI50 (HT-29): 10.3 µM (inactive)
GI50 (786-0): 15.9 µM (inactive)
GI50 (RPMI-8226): 16.4 µM (inactive)
GI50 (SW-620): 9.59 µM (inactive)
GI50 (K562): 19.7 µM (inactive)
GI50 (UACC-62): 16.6 µM (inactive)
GI50 (HCT-116): 3.98 µM (inactive)
GI50 (SK-MEL-2): 18.7 µM (inactive)
GI50 (SF-295): 8.97 µM (inactive)
GI50 (NCI-H23): 14.8 µM (inactive)
GI50 (SK-MEL-28): 18.4 µM (inactive)

COc1cc(/C=C2\CN(C)CC3=C2N=C(S)NC3c2cc(OC)c(OC)c(OC)c2)cc(OC)c1OC (stereo unspecified)
GI50 (COLO 205): 79.8 µM (inactive)
GI50 (OVCAR-3): > 100 µM (inactive)
GI50 (HOP-62): 69.7 µM (inactive)
GI50 (PC-3): 38.3 µM (inactive)
GI50 (MDA-MB-231): 61.9 µM (inactive)
GI50 (MOLT-4): 57.4 µM (inactive)
GI50 (UACC-257): > 100 µM (inactive)
GI50 (SN12C): 67.9 µM (inactive)
GI50 (Hs-578T): 30.5 µM (inactive)
GI50 (OVCAR-4): 56 µM (inactive)
GI50 (Malme-3M): > 100 µM (inactive)
GI50 (MDA-N): 50.2 µM (inactive)
GI50 (SF-268): 94.4 µM (inactive)
GI50 (OVCAR-8): 83.2 µM (inactive)
GI50 (T47D): > 100 µM (inactive)
GI50 (SNB-75): 28.6 µM (inactive)
GI50 (NCI/ADR-RES): > 100 µM (inactive)
GI50 (HCT-15): 80.2 µM
GI50 (HOP-92): > 100 µM (inactive)
GI50 (M14): 51.2 µM (inactive)
GI50 (EKVX): 32.6 µM (inactive)
GI50 (NCI-H460): 54.5 µM (inactive)
GI50 (IGROV-1): 71.8 µM (inactive)
GI50 (NCI-H522): 54.7 µM (inactive)
GI50 (SK-MEL-5): 17.9 µM (inactive)
GI50 (LOX IMVI): 36.2 µM (inactive)
GI50 (ACHN): 91.2 µM (inactive)
GI50 (A549): 49.9 µM (inactive)
GI50 (DU-145): > 100 µM (inactive)
GI50 (SR): > 100 µM (inactive)
GI50 (HT-29): 67.9 µM (inactive)
GI50 (SK-OV-3): > 100 µM (inactive)
GI50 (786-0): 39.2 µM (inactive)
GI50 (SW-620): > 100 µM (inactive)
GI50 (UACC-62): 20.9 µM (inactive)
GI50 (SK-MEL-2): > 100 µM (inactive)
GI50 (SF-295): 65.5 µM (inactive)
